{"source": "a melting point compilation (Tetko et al.; mined from patent text by program, amines drawn as free bases though some values may be those of a salt)"}
{"units": {"melting point": "°C"}}
{"compound": "CCOc1cncc(I)n1", "melting point": "36 to 37"}
{"compound": "CN(C)CCCn1cc(C2=C(c3c[nH]c4ccccc34)C(=O)N(C)C2=O)c2ccccc21", "melting point": "86 to 90"}
{"compound": "CCCc1c(OCCCOc2cccc3c2CCCC3)ccc2c1OC(CCCC=O)(CCCC=O)CC2=O", "melting point": "72 to 73"}
{"compound": "CCCCCCCCCCCCCCCCCC(=O)NCCOCCn1c(CCOC)nc2c(N)nc3ccccc3c21", "melting point": "80 to 83"}
{"compound": "COc1ccc(C2=NNC(=O)[C@H]3CC=CC[C@@H]23)c2c1OC(C)(C)C2", "note": "(relative stereo)", "melting point": 242}
{"compound": "CN(C)c1nc2sc3c(NCCCN4CCCC4=O)ncnc3c2c2c1CC(C)(C)C2", "melting point": "184 to 186"}
{"compound": "O=C(O)CC1CCC(CCNS(=O)(=O)c2ccc(Br)cc2)CC1", "note": "(centres undefined)", "melting point": "124 to 126"}
{"compound": "COC(=O)C1=C(C)NC(C)=C(C(=O)OC)C1c1cccc(NC(=O)C(F)(F)F)c1", "melting point": "231 to 232"}
{"compound": "COc1ccc(C2(C(C)NCc3ccncc3)CCC2)cc1", "note": "(centres undefined)", "melting point": "110 to 113"}
{"compound": "COc1ccc(-c2ccc3cnc(Nc4ccc(C5CCN(CC(N)=O)CC5)cc4)nn23)cn1", "melting point": 217}
{"compound": "Cc1ccc(C(=O)C=Cc2cc(O)c(O)c([N+](=O)[O-])c2)cc1", "melting point": "184 to 186"}
{"compound": "COc1cccc(NC(=O)NCC2(c3ccccc3)CCCCC2)c1", "melting point": "120 to 122"}
{"compound": "O=c1c2c(oc3c1nnn3Cc1ccccc1)CSC2", "melting point": "210 to 212"}
{"compound": "CC(C)(C)C1CCC2(CC1)CC(=NO)CO2", "note": "(centres undefined)", "melting point": 118}
{"compound": "COc1cc2nc(SC)c(C#N)c(C)c2cc1OCc1ccccc1", "melting point": "171 to 174"}
{"compound": "Oc1cc(C(F)(F)F)ccc1I", "melting point": "36 to 38"}
{"compound": "CCCCCCCCCCCCCCCCCCS(=O)(=O)c1cc(C(=O)O)c([N+](=O)[O-])c(C(=O)O)c1", "melting point": "203 to 205"}
{"compound": "N#Cc1c(N2CCN(C(=O)c3ccco3)CC2)c2cc(Cl)ccc2n(Cc2ccc(F)cc2)c1=O", "melting point": 253}
{"compound": "CCN(CC)CCNC(=O)c1ccc2cncc(I)c2n1", "melting point": "44 to 46"}
{"compound": "CCCc1c(OCCCBr)ccc(C(C)=O)c1O", "melting point": "38 to 40"}
{"compound": "CCc1cc2c(Cl)cc(F)c(-n3c(=O)cc(C(F)(F)F)n(N)c3=O)c2o1", "melting point": "145 to 147"}
{"compound": "c1cc2c3c(c1)Cc1c(ccc4c1OCO4)C3CNC2", "note": "(centres undefined)", "melting point": "175 to 176"}
{"compound": "Cc1cc(-c2nc3ccc(CCN4CCOCC4)cc3c(=O)[nH]2)cc(C)n1", "melting point": "248 to 249"}
{"compound": "Cc1cc(-c2ccc(C(F)(F)F)nc2)cc(-c2cccc(-c3cccc(S(=O)(=O)NC(C)(C)C)c3)n2)n1", "melting point": "187 to 188"}
{"compound": "CN1CCN(c2cccc3c2C[C@H](NC(=O)c2ccc(C(F)(F)F)cc2)CO3)CC1", "melting point": "212 to 214"}
{"compound": "COCCOC(=O)OC[C@@H](O)[C@@H]1CC(c2ccc(-c3ccc(N4C[C@H](Cn5ccnn5)OC4=O)cc3F)cn2)=NO1", "melting point": 125}
{"compound": "CNc1ccccc1C(=O)NCCCn1cncn1", "melting point": "131 to 133"}
{"compound": "CC1CC1n1cc(C(=O)O)c(=O)c2cc(F)c(F)c(F)c21", "note": "(centres undefined)", "melting point": "167 to 168"}
{"compound": "O=C1c2ccccc2C(=O)N1CCCOc1cccc(CO)c1", "melting point": "78 to 80"}
{"compound": "CCOc1cccn2nc(-c3ccccc3)c(-c3ccc(=O)n(C(C)C)n3)c12", "melting point": "157 to 158"}
{"compound": "CC12CC(O)C3(F)C(CCC4=CC(=O)C=CC43C)C1CC(O)C2=O", "note": "(centres undefined)", "melting point": "227 to 228"}
{"compound": "COc1cccc(S(=O)(=O)c2ccc3c(c2)[C@@H](Nc2ccnc(Cl)n2)[C@](C)(O)C(C)(C)O3)c1", "melting point": "228 to 230"}
{"compound": "CN(C)CCn1c(=O)c2cccc([N+](=O)[O-])c2c2cnc3cc4c(cc3c21)OCO4", "melting point": "96 to 97"}
{"compound": "Cc1cccc(C)c1CO", "melting point": 84}
{"compound": "CC(C)(C)c1cc(N(C(=O)CCC(=O)O)c2cccc(C(=O)O)c2)cc(C(C)(C)C)c1O", "melting point": "182 to 183"}
{"compound": "COc1cccc(CNC(CCCCCC(=O)O)C(C)C)c1", "note": "(centres undefined)", "melting point": "64 to 67"}
{"compound": "CCOC(=O)C(NS(=O)(=O)c1ccc(C)cc1)C1CCOC1C#N", "note": "(centres undefined)", "melting point": "105 to 107"}
{"compound": "COC(=O)C(C)Oc1cccc2c1c(C(=O)C(N)=O)c(C)n2Cc1ccccc1", "note": "(centres undefined)", "melting point": 175}
{"compound": "COC(=O)C[C@H]1[C@@H](C(C)=O)C(=O)N1C(c1ccccc1)(c1ccccc1)c1ccccc1", "melting point": "52 to 54"}
{"compound": "O=c1[nH]c(=O)n(CCCCN2CC=C(c3ccccc3)CC2)c2cc([N+](=O)[O-])ccc12", "melting point": "242 to 244"}
{"compound": "NC(=O)c1cccc(-c2cccc3cc(Cc4cc(F)cc(C(F)(F)F)c4)sc23)c1", "melting point": "147 to 148"}
{"compound": "CN1C2=NCCCN2C(=O)c2cc(Cl)ccc21", "melting point": "119 to 120"}
{"compound": "NC(=O)CC1=C(n2nc(-c3c(-c4ccccc4)nn4ccccc34)ccc2=O)CCCC1", "melting point": "204 to 205"}
{"compound": "CS(=O)(=O)c1ccc(-c2cnn(CC(F)(F)F)c(=O)c2OCCN2CCCCC2)cc1", "melting point": "117 to 118"}
{"compound": "CCCCC(=O)NC(C(=O)OCC)=C(N)SCC", "melting point": 110}
{"compound": "Cn1cc2snnc2n1", "melting point": "125 to 127"}
{"compound": "CC(C)Oc1cc(CCCOc2nn(Cc3ccccc3)cc2CC(=O)O)n(Cc2ccc(F)cc2Cl)n1", "melting point": "121 to 123"}
{"compound": "COc1cc2c(cc1OC)C(C(S)(C#N)C(C)C(=O)O)=NCC2", "note": "(centres undefined)", "melting point": "155 to 158"}
{"compound": "CC(C)Nc1cccnc1N1CCN(C(=O)c2ccc(C(=O)N(C)CCO)cc2)CC1", "melting point": "131 to 132"}
{"compound": "N#Cc1cc2c(c3ccc(=O)[nH]c13)OC(CN=[N+]=[N-])C2", "note": "(centres undefined)", "melting point": "213 to 215"}
{"compound": "COC(=O)C(NCc1ccccc1)c1c[nH]c2ccccc12", "note": "(centres undefined)", "melting point": "91.5 to 93"}
{"compound": "N#Cc1nn(-c2c(Cl)cc(C(F)(F)F)cc2Cl)c(N)c1-c1cc(Cl)cc(Cl)c1", "melting point": "228 to 230"}
{"compound": "CCCCC(CC)COc1ccc2c(-c3ccc(CBr)cc3)c3cc(OCC(CC)CCCC)ccc3c(-c3ccc(CBr)cc3)c2c1", "note": "(centres undefined)", "melting point": "105 to 107"}
{"compound": "COc1cc2c(cc1OC)CN(CCCc1ccc(NC(=O)c3cccc4c(=O)c5cccc(F)c5[nH]c34)cc1)CC2", "melting point": 166}
{"compound": "CC(=O)c1nc(-c2ccc(O)cc2)n(C)c1C", "melting point": "198 to 202"}
{"compound": "Cc1c(Cl)cc(C(C)C)c2oc(SCCN3CCN(CC(=O)Nc4c(C(C)C)cccc4C(C)C)CC3)nc12", "melting point": "162 to 163"}
{"compound": "COCC1(C)Oc2ccc(C#N)cc2C2OC21", "note": "(centres undefined)", "melting point": "88 to 90"}
{"compound": "CCOP(=O)(/C=C/c1cn(-c2ccccc2)nc1OCc1ccc(OCc2nc(-c3ccc(OC)c(C(=O)OC)c3)oc2C)c(OC)c1)OCC", "melting point": "144 to 145"}
{"compound": "O=C1Nc2ccc(F)cc2C12COc1cc3c(cc12)CCO3", "note": "(centres undefined)", "melting point": "257 to 259"}
{"compound": "CNc1nc(-c2cccc(-c3cncc(-c4ccccc4)c3)c2)c2cc(OC)c(OC)cc2n1", "melting point": "200 to 202"}
{"compound": "CCCCCCCCCCCCCCCCCC(=O)n1cc(F)c(=O)n(C(=O)c2ccccc2)c1=O", "melting point": 85}
{"compound": "CC(C)(C)[C@H](O)[C@@H](C#N)c1ccccc1", "note": "(racemic)", "melting point": "70.7 to 71.2"}
{"compound": "C#CCN(C(=O)C1CC1)c1cccc(-c2ccnc3c(C(=O)c4cccs4)cnn23)c1", "melting point": "221 to 223"}
{"compound": "CN(CCc1ccccc1)C(=O)Cn1cc(C=CC(=O)N2CCCC2)c2cc(OCc3ccccc3)ccc21", "melting point": "185 to 187"}
{"compound": "CC(=O)c1cc(C#N)c(=O)[nH]c1-c1ccccc1", "melting point": "259 to 261"}
{"compound": "CCOC(=O)c1nc2sc(C(C)C)cc2c(=O)[nH]1", "melting point": "182 to 183"}
{"compound": "CCCC(=O)Oc1ccc2[nH]c(=O)c(-c3nnn(Cc4cccc(OCc5ccc6ccccc6n5)c4)n3)cc2c1", "melting point": "200 to 202"}
{"compound": "CS(=O)(=O)c1c(O)c2cccnc2n(Cc2ccccc2)c1=O", "melting point": 155}
{"compound": "CC(C)(C)OC(=O)N1CCN(c2cccc3cc(N)cnc23)CC1", "melting point": "168 to 173"}
{"compound": "OC12CC3CC(C1)C(NC(c1ccccc1)(c1ccccc1)c1ccccc1)C(C3)C2", "note": "(centres undefined)", "melting point": "166 to 170"}
{"compound": "COc1ccc(-c2ccc(C(=O)Nc3ccc4cc(CN5C(C)(C)CCCC5(C)C)ccc4c3)cc2)cc1", "melting point": "212 to 214"}
{"compound": "CCN(CC)CCn1nnnc1-c1ccc2oc3ncccc3c(=O)c2c1", "melting point": "126 to 128"}
{"compound": "COc1cc2c(c3c1C1CCC3CC1)OC(CN)C2", "note": "(centres undefined)", "melting point": "> 210"}
{"compound": "COC(=O)c1ccc2c(c1)C(=O)CCC2", "melting point": "170 to 172"}
{"compound": "CCC(=O)Oc1cc(OC)cc(OC)c1C(=O)C=Cc1ccc(SC)cc1", "melting point": 108}
{"compound": "N#Cc1cc2c(c(C(=O)O)c1)NCCCC2", "melting point": 175}
{"compound": "COC(=O)c1ccc(C(=O)C2CCC3=C(N=C(C(C)C)C(C(C)C)N3)C2=O)cc1", "note": "(centres undefined)", "melting point": "82 to 84"}
{"compound": "Cc1cccc(C)c1NC(=O)c1ccc(Cl)nc1", "melting point": "165 to 166"}
{"compound": "CCCCC1(CCCC)CS(=O)(=O)c2ccc(N(C)C)cc2[C@@H](c2ccc(OCCCCCN(CC(=O)O)CC(=O)O)cc2)[C@H]1O", "melting point": "148 to 162"}
{"compound": "COc1ccc(Br)c(-c2nc(=S)n(Cc3ccccc3)[nH]2)c1", "melting point": "154 to 155"}
{"compound": "O=C(Nc1ccc(C(=O)N2Cc3ccccc3Cc3ccccc32)cc1)c1sc2ccccc2c1Cl", "melting point": "252 to 254"}
{"compound": "C=CCN1C(=O)COc2ccc(C3CC(=O)C(C(CC)=NOCC)=C(O)C3)cc21", "note": "(centres undefined)", "melting point": "79 to 83"}
{"compound": "CCc1cc(N(CC)C(=O)N2CCN(c3cc(C)cc(C)c3)CC2)c(OC)nc1C", "melting point": "84 to 85"}
{"compound": "COP(=O)(NC1C(=O)N2C(C(=O)OCc3ccccc3)=C(C=CN(C)C)CSC12)OC", "note": "(centres undefined)", "melting point": "126 to 128"}
{"compound": "O=c1[nH]c2cc([N+](=O)[O-])c(Sc3cccc4cnccc34)cc2o1", "melting point": "255 to 260"}
{"compound": "O=C(Nc1ccccc1)c1ccc2c(c1)S(=O)(=O)N=CN2C1CC1", "melting point": "293 to 296"}
{"compound": "CCCc1ccnc2c(=O)[nH]c(-c3cc([N+](=O)[O-])ccc3OCC)nc12", "melting point": "257 to 259"}
{"compound": "O=C(Nc1ccc(OC(F)(F)F)cc1)N1CC(c2cc(C(F)(F)F)ns2)C(c2ccc(Cl)cc2)=N1", "note": "(centres undefined)", "melting point": "101 to 104"}
{"compound": "Cc1cc(F)ccc1Nc1nc(N(C)c2ccccc2)c2cccc(OCCCN3CCOCC3)c2n1", "melting point": "133 to 134"}
{"compound": "CCOC(=O)C(Cl)=Cc1cc(NC(=O)C2=C(C(=O)N(C)C)CCCC2)ccc1Cl", "melting point": "161 to 164"}
{"compound": "COC1=CN=C(COC(c2ccccc2)(c2ccccc2)c2ccccc2)CC1=O", "melting point": "185 to 187"}
{"compound": "CNc1nc2ccccc2c2c1ncn2C", "melting point": "216 to 218"}
{"compound": "CN(C)c1ccc2c(c1)c(=O)[nH]c(=O)n2CCCCN1CCC(OC(c2ccccc2)c2ccccc2)CC1", "melting point": "165 to 167"}
{"compound": "CC(C)(C)c1cc(CSP(=S)(C2CCCCC2)C2CCCCC2)cc(C(C)(C)C)c1O", "melting point": "129 to 131"}
